Here are results for 15 compounds from US20070122360A1, “Nonaqueous gel composition for tooth whitening and tooth whitening set” (LION CORPORATION, priority 2003, published 2007).

Data set [1] can be described thus: Solubility of ingredient (B) in aqueous solution of 1 mmol/L calcium chloride. Particulars: 0.1 g in 100 g aqueous 1 mmol/L calcium chloride, 37° C. The protocol:
(§1) If the ingredient (B) is liquid, the term “is precipitated by an aqueous solution of calcium chloride” means that the ingredient (B) forms precipitates or becomes turbid.
Solubility of the ingredient (B) in an aqueous solution of 1 mmol/L calcium chloride was determined in the same way as above.

Data set [2] can be described thus: Solubility of ingredient (B) in tooth whitening ingredient (A), visual check for undissolved residues. To be noted: for Solubility in 1,3-butylene glycol: 0.1 g in 100 g 1,3-butylene glycol; for Solubility in PEG#300 (Av. MW 280-320): 0.1 g in 100 g PEG#300, 37° C. The protocol: as §1
A sample (0.1 g) of the ingredient (B) is added to 100 g of the tooth whitening ingredient (A), and the resulting mixture is stirred at 37° C. for 16 hours and allowed to stand at 37° C. for 24 hours. The mixture is visually examined for undissolved residues of the ingredient (B).
Criterion for Overall Rating: • ◯: More than 0.1 g is soluble in 100 g of ingredient (A) and less than 0.1 g is soluble in 100 g of aqueous solution of 1 mmol/L calcium chloride.
X: Other than specified above.

Data set [3] is described as follows: Measurement of relative permittivity (LCR meter, 100 kHz, 1 V). It counts as physicochemical.
Method: The sample (100 mL) was tested for relative permittivity at 25° C. at a frequency of 100 kHz and a voltage of 1 V by using an LCR meter (HP4284A, with HP16452A electrode for liquid, from Hewlett Packard).
The nature of data set [4]: Measurement of vapor pressure (vapor-liquid equilibrium apparatus).
Method: The sample (80 mL in a cell) was tested for vapor pressure at (25° C.) by using a vapor-liquid equilibrium measuring apparatus (VLE autolabo, from TOYO KOATSU Co., Ltd.).

Consider `CCCCCCCCCCCC(=O)O` [Lauric acid, reference compound], for which the “Solubility in Aqueous solution of 1 mmol/L calcium chloride” value (from here on “Solubility … of 1 mmol/L calcium chloride”) in data set [1] was “◯ (solubility more than 0.1 g (no undissolved residues))”. Moreover, the “Solubility in 1,3-butylene glycol” value in data set [2] (37° C.) is listed as “◯ (solubility more than 0.1 g (no undissolved residues))”.
In the case of `CCCCCCCC/C=C\CCCCCCCC(=O)O` [Oleic acid], the “Solubility … of 1 mmol/L calcium chloride” value in data set [1] is listed as “X (solubility less than 0.1 g (with undissolved residues))”. Besides, in data set [2], the “Solubility in PEG#300 (Av. MW 280-320)” value is “◯ (solubility more than 0.1 g (no undissolved residues))”.
As for `CC(O)COC(C)CO` (stereo not shown) [Dipropylene glycol], the “Relative Permittivity (at 25° C.)” value in data set [3] is given as 26.2. Also, the “Vapor pressure kPa (at 25° C.)” value in data set [4] stood at 0 kPa.
For the compound `CCCCCCCCCCCCCC(=O)O` [Myristic acid], in data set [1], the “Solubility … of 1 mmol/L calcium chloride” value is “X (solubility less than 0.1 g (with undissolved residues))”. Further, the “Solubility in PEG#300 (Av. MW 280-320)” value in data set [2] is given as “◯ (solubility more than 0.1 g (no undissolved residues))”.
For the compound `[Cl-].[Cl-].[Zn+2]` [Zinc chloride, reference compound], in data set [1], the “Solubility … of 1 mmol/L calcium chloride” value is listed as “◯ (solubility more than 0.1 g (no undissolved residues))”. In data set [2] (37° C.), the “Solubility in 1,3-butylene glycol” value is listed as “◯ (solubility more than 0.1 g (no undissolved residues))”.
In the case of `OCC(O)CO` [Glycerin], the “Relative Permittivity (at 25° C.)” value in data set [3] is listed as 42.5. Moreover, in data set [4], the “Vapor pressure kPa (at 25° C.)” value was 3 kPa.
As for `CCCCCCCC/C=C\CCCCCCCCCCCC(=O)O` [Erucic acid], in data set [1], the “Solubility … of 1 mmol/L calcium chloride” value is given as “X (solubility less than 0.1 g (with undissolved residues))”. Besides, the “Solubility in PEG#300 (Av. MW 280-320)” value in data set [2] is “◯ (solubility more than 0.1 g (no undissolved residues))”.
As for `OCCO` [Ethylene glycol], the “Relative Permittivity (at 25° C.)” value in data set [3] is on record as 37.7. Further, the “Vapor pressure kPa (at 25° C.)” value in data set [4] was found to be 59 kPa.
For the compound `O` [Water], the “Relative Permittivity (at 25° C.)” value in data set [3] is on record as 78.3.
Consider `OCCOCCO` [Diethylene glycol], for which, in data set [3], the “Relative Permittivity (at 25° C.)” value turned out to be 33.0. Further, the “Vapor pressure kPa (at 25° C.)” value in data set [4] is given as 11 kPa.
With `CCO` [Ethanol], in data set [3], the “Relative Permittivity (at 25° C.)” value turned out to be 24.6. In addition, in data set [4], the “Vapor pressure kPa (at 25° C.)” value came out at 7948 kPa.
With `CC(O)CCO` (stereo not shown) [1,3-dibutylene glycol], the “Relative Permittivity (at 25° C.)” value in data set [3] is 33.5. Moreover, the “Vapor pressure kPa (at 25° C.)” value in data set [4] came out at 108 kPa.
The corresponding values for `CC(C)O` [Isopropanol] are 19.9 and 5819 kPa.
Regarding `CC(O)CO` (stereo not shown) [Propylene glycol], the “Relative Permittivity (at 25° C.)” value in data set [3] is 32.0. For the same compound, the “Vapor pressure kPa (at 25° C.)” value in data set [4] amounted to 1 kPa.
With `CCCCCC/C=C\CCCCCCCC(=O)O` [Palmitoleic acid], in data set [1], the “Solubility … of 1 mmol/L calcium chloride” value is “X (solubility less than 0.1 g (with undissolved residues))”. Further, the “Solubility in 1,3-butylene glycol” value in data set [2] (37° C.) is “◯ (solubility more than 0.1 g (no undissolved residues))”. Further, the “Solubility in PEG#300 (Av. MW 280-320)” value in data set [2] is on record as “◯ (solubility more than 0.1 g (no undissolved residues))”. For the same compound, the “Solubility in Propylene glycol” value in data set [2] (0.1 g in 100 g Propylene glycol, 37° C.) was “◯ (solubility more than 0.1 g (no undissolved residues))”.
